{
  "source": "patent US12144351B2",
  "about": "“Herbicidal mixtures comprising L-glufosinate and their use in corn cultures” (priority 2017, dated 2024)",
  "experiment_in_all_cases": "Post emergence treatment, greenhouse pot test, herbicidal activity",
  "type_in_all_cases": "in vivo",
  "settings_in_all_cases": "scale 0 to 100",
  "key": {"AVEFA (Avena fatua)": {"system": "AVEFA (Avena fatua)", "procedure": "(§1) The analysis of synergism or antagonism between the mixtures or compositions was determined using Colby's equation.\n(§2) The culture containers used were plastic flowerpots containing loamy sand with approximately 3.0% of humus as the substrate. The seeds of the test plants were sown separately for each species and/or resistant biotype. […] The containers were irrigated gently to promote germination and growth and subsequently covered with transparent plastic hoods until the plants had rooted. This cover caused uniform germination of the test plants, unless this had been impaired by the active ingredients. […] For this purpose, the test plants were either sown directly and grown in the same containers, or they were first grown separately as seedlings and transplanted into the test containers a few days prior to treatment. Depending on the species, the plants were kept at 10-25° C. or 20-35° C., respectively. The test period extended to 20 days after treatment. During this time, the plants were tended, and their response to the individual treatments was evaluated. The evaluation was carried out by using a scale from 0 to 100. 100 means no emergence of the plants or complete destruction of at least the above-ground parts, and 0 means no damage, or normal course of growth. Data shown are the mean of two replications."}, "SETVI (Setaria viridis)": {"system": "SETVI (Setaria viridis)", "procedure": "as §1, §2"}, "KCHSC (Kochia scoparia)": {"system": "KCHSC (Kochia scoparia)", "procedure": "as §1, §2"}, "[1]": {"system": "ABUTH (Abutilon theophrasti)", "procedure": "as §1, §2"}, "[2]": {"system": "COMBE (Commelina benghalensis)", "procedure": "as §1, §2"}, "[3]": {"system": "CHEAL (Chenopodium album)", "procedure": "as §1, §2"}, "[4]": {"system": "ECHCG (Echinochloa crus-galli)", "procedure": "as §1, §2"}, "[5]": {"settings": "2,4-D as dimethylammonium salt 70 g ai/ha"}, "[6]": {"settings": "2,4-D as dimethylammonium salt 140 g ai/ha"}},
  "data": [
    {"compound": "CNC.O=C(O)COc1ccc(Cl)cc1Cl", "note": "[2,4-D as dimethylammonium salt, 2,4-D dimethylammonium salt]", "values": [
      {"measurement": "Herbicidal activity against AVEFA, Found", "setting": "AVEFA (Avena fatua); [5]", "result": 0},
      {"measurement": "Herbicidal activity against AVEFA, Found", "setting": "AVEFA (Avena fatua); [6]", "result": 0},
      {"measurement": "Herbicidal activity against SETVI, Found", "setting": "SETVI (Setaria viridis); [5]", "result": 0},
      {"measurement": "Herbicidal activity against SETVI, Found", "setting": "SETVI (Setaria viridis); [6]", "result": 0}
    ]},
    {"compound": "COC[C@H](C)N(C(=O)CCl)c1c(C)csc1C", "note": "[Dimethenamid-P]", "values": [
      {"measurement": "Herbicidal activity against KCHSC, Found", "setting": "KCHSC (Kochia scoparia); Dimethenamid-P 500 g ai/ha", "result": 0},
      {"measurement": "Herbicidal activity against KCHSC, Found", "setting": "KCHSC (Kochia scoparia); Dimethenamid-P 1000 g ai/ha", "result": 70}
    ]},
    {"compound": "CP(=O)(O)CC[C@H](N)C(=O)O", "note": "[L-Glufosinate, (2S)-2-amino-4-[hydroxy(methyl)phosphinoyl]butyric acid]", "values": [
      {"measurement": "Herbicidal activity against ABUTH, Found", "setting": "[1]; L-Glufosinate 75 g ai/ha", "result": 0},
      {"measurement": "Herbicidal activity against ABUTH, Found", "setting": "[1]; L-Glufosinate 150 g ai/ha", "result": 55},
      {"measurement": "Herbicidal activity against ABUTH, Found", "setting": "[1]; L-Glufosinate 200 g ai/ha", "result": 65},
      {"measurement": "Herbicidal activity against AVEFA, Found", "setting": "AVEFA (Avena fatua); L-Glufosinate 75 g ai/ha", "result": 0},
      {"measurement": "Herbicidal activity against AVEFA, Found", "setting": "AVEFA (Avena fatua); L-Glufosinate 150 g ai/ha", "result": 0},
      {"measurement": "Herbicidal activity against COMBE, Found", "setting": "[2]; L-Glufosinate 100 g ai/ha", "result": 0}
    ]},
    {"compound": "CCOCCN(C(=O)CCl)C(=C(C)C)c1ccccc1", "note": "[Pethoxamid, pethoxamid]", "values": [
      {"measurement": "Herbicidal activity against ABUTH, Found", "setting": "[1]; Pethoxamid 50 g ai/ha", "result": 0},
      {"measurement": "Herbicidal activity against ABUTH, Found", "setting": "[1]; Pethoxamid 100 g ai/ha", "result": 0},
      {"measurement": "Herbicidal activity against AVEFA, Found", "setting": "AVEFA (Avena fatua); Pethoxamid 50 g ai/ha", "result": 0},
      {"measurement": "Herbicidal activity against AVEFA, Found", "setting": "AVEFA (Avena fatua); Pethoxamid 100 g ai/ha", "result": 0}
    ]},
    {"compound": "CCc1cccc(C)c1N(C(=O)CCl)[C@@H](C)COC", "note": "[S-Metolachlor, S-metolachlor]", "values": [
      {"measurement": "Herbicidal activity against CHEAL, Found", "setting": "[3]; S-Metolachlor 500 g ai/ha", "result": 20},
      {"measurement": "Herbicidal activity against CHEAL, Found", "setting": "[3]; S-Metolachlor 1000 g ai/ha", "result": 75}
    ]},
    {"compound": "C#CCN1C(=O)C(F)(F)Oc2cc(F)c(-n3c(=O)n(C)c(=S)n(C)c3=O)cc21", "note": "[Trifludimoxazin, trifludimoxazin]", "values": [
      {"measurement": "Herbicidal activity against ECHCG, Found", "setting": "[4]; Trifludimoxazin 0.25 g ai/ha", "result": 10}
    ]},
    {"compound": "Dicamba dimethylammonium salt [Dicamba as dimethylammonium salt]", "values": [
      {"measurement": "Herbicidal activity against SETVI, Found", "setting": "SETVI (Setaria viridis); Dicamba as dimethylammonium salt 35 g ai/ha", "result": 0},
      {"measurement": "Herbicidal activity against SETVI, Found", "setting": "SETVI (Setaria viridis); Dicamba as dimethylammonium salt 70 g ai/ha", "result": 0},
      {"measurement": "Herbicidal activity against SETVI, Found", "setting": "SETVI (Setaria viridis); Dicamba as dimethylammonium salt 140 g ai/ha", "result": 30}
    ]},
    {"compound": "bicyclopyrone", "values": [
      {"measurement": "Herbicidal activity against ECHCG, Found", "setting": "[4]; Bicyclopyrone 1 g ai/ha", "result": 0},
      {"measurement": "Herbicidal activity against ECHCG, Found", "setting": "[4]; Bicyclopyrone 2 g ai/ha", "result": 0},
      {"measurement": "Herbicidal activity against COMBE, Found", "setting": "[2]; Bicyclopyrone 1 g ai/ha", "result": 0},
      {"measurement": "Herbicidal activity against COMBE, Found", "setting": "[2]; Bicyclopyrone 2 g ai/ha", "result": 10}
    ]}
  ]
}
